Data as given in PubChem BioAssay (NCI).
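How tested: cells in 96-well plates exposed to compound for 48 hours at five concentrations. GI50 marks 50% less growth. TGI: total growth inhibition.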

Legend:
Assay in all cases: growth of human tumour cells (NCI), 48 h
[1] = test system: 786-0 renal
[2] = test system: A498 renal
[3] = test system: A549 NSCLC
[4] = test system: ACHN renal
[5] = test system: BT-549 breast
[6] = test system: CAKI-1 renal
[7] = test system: CCRF-CEM leukemia
[8] = test system: COLO 205 colon
[9] = test system: DU-145 prostate
[10] = test system: EKVX NSCLC
[11] = test system: HCC-2998 colon
[12] = test system: HCT-116 colon
[13] = test system: HCT-15 colon
[14] = test system: HL-60(TB) leukemia
[15] = test system: HOP-62 NSCLC
[16] = test system: HOP-92 NSCLC
[17] = test system: HS 578T breast
[18] = test system: HT29 colon
[19] = test system: IGROV1 ovarian
[20] = test system: K-562 leukemia
[21] = test system: KM12 colon
[22] = test system: LOX IMVI melanoma
[23] = test system: M14 melanoma
[24] = test system: MALME-3M melanoma
[25] = test system: MCF7 breast
[26] = test system: MDA-MB-231 breast
[27] = test system: MDA-MB-435
[28] = test system: MOLT-4 leukemia
[29] = test system: NCI-H226 lung
[30] = test system: NCI-H23 lung
[31] = test system: NCI-H460 lung
[32] = test system: NCI-H522 lung
[33] = test system: NCI/ADR-RES ovarian
[34] = test system: OVCAR-3 ovarian
[35] = test system: OVCAR-4 ovarian
[36] = test system: OVCAR-5 ovarian
[37] = test system: OVCAR-8 ovarian
[38] = test system: PC-3 prostate
[39] = test system: RPMI-8226 leukemia
[40] = test system: RXF 393 renal
[41] = test system: SF-268 CNS
[42] = test system: SF-295 CNS
[43] = test system: SF-539 CNS
[44] = test system: SK-MEL-2 melanoma
[45] = test system: SK-MEL-28 melanoma
[46] = test system: SK-MEL-5 melanoma
[47] = test system: SK-OV-3 ovarian
[48] = test system: SN12C renal
[49] = test system: SNB-19 CNS
[50] = test system: SNB-75 CNS
[51] = test system: SW-620 colon
[52] = test system: T-47D breast
[53] = test system: TK-10 renal
[54] = test system: U251 CNS
[55] = test system: UACC-257 melanoma
[56] = test system: UACC-62 melanoma
[57] = test system: UO-31 renal

Structure (SMILES): CC(C)(C)CC(C)(C)c1ccc(OCCSC(=N)N)cc1
- GI50 [1]: 1510 nM
- TGI [1]: 3090 nM
- GI50 [2]: 2340 nM
- TGI [2]: 11500 nM
- GI50 [3]: 1910 nM
- TGI [3]: 4430 nM
- GI50 [4]: 1640 nM
- TGI [4]: 3270 nM
- GI50 [5]: 2020 nM
- TGI [5]: 4800 nM
- GI50 [6]: 3130 nM
- TGI [6]: 13600 nM
- GI50 [7]: 1990 nM
- TGI [7]: 5320 nM
- GI50 [8]: 564 nM
- TGI [8]: 2010 nM
- GI50 [9]: 1740 nM
- TGI [9]: 3220 nM
- GI50 [10]: 1410 nM
- TGI [10]: 2980 nM
- GI50 [11]: 610 nM
- TGI [11]: 1880 nM
- GI50 [12]: 1380 nM
- TGI [12]: 2850 nM
- GI50 [13]: 1060 nM
- TGI [13]: 2380 nM
- GI50 [14]: 1600 nM
- TGI [14]: 3520 nM
- GI50 [15]: 2150 nM
- TGI [15]: 4000 nM
- GI50 [16]: 1140 nM
- TGI [16]: 2570 nM
- GI50 [17]: 2150 nM
- TGI [17]: 5420 nM
- GI50 [18]: 417 nM
- TGI [18]: 1850 nM
- GI50 [19]: 2310 nM
- TGI [19]: 5200 nM
- GI50 [20]: 833 nM
- TGI [20]: 3860 nM
- GI50 [21]: 1500 nM
- TGI [21]: 3050 nM
- GI50 [22]: 1480 nM
- TGI [22]: 2920 nM
- GI50 [23]: 1680 nM
- TGI [23]: 3420 nM
- GI50 [24]: 1810 nM
- TGI [24]: 3460 nM
- GI50 [25]: 1320 nM
- TGI [25]: 3000 nM
- GI50 [26]: 1220 nM
- TGI [26]: 2800 nM
- GI50 [27]: 1450 nM
- TGI [27]: 2800 nM
- GI50 [28]: 1700 nM
- TGI [28]: 4800 nM
- GI50 [29]: 1930 nM
- TGI [29]: 5830 nM
- GI50 [30]: 1810 nM
- TGI [30]: 3680 nM
- GI50 [31]: 1890 nM
- TGI [31]: 3870 nM
- GI50 [32]: 1590 nM
- TGI [32]: 3450 nM
- GI50 [33]: 1870 nM
- TGI [33]: 3880 nM
- GI50 [34]: 1470 nM
- TGI [34]: 2890 nM
- GI50 [35]: 1430 nM
- TGI [35]: 2910 nM
- GI50 [36]: 1880 nM
- TGI [36]: 3770 nM
- GI50 [37]: 2080 nM
- TGI [37]: 5080 nM
- GI50 [38]: 1610 nM
- TGI [38]: 4170 nM
- GI50 [39]: 1360 nM
- TGI [39]: 3590 nM
- GI50 [40]: 1180 nM
- TGI [40]: 2580 nM
- GI50 [41]: 2010 nM
- TGI [41]: 4050 nM
- GI50 [42]: 1690 nM
- TGI [42]: 3120 nM
- GI50 [43]: 1750 nM
- TGI [43]: 3350 nM
- GI50 [44]: 1960 nM
- TGI [44]: 3700 nM
- GI50 [45]: 1700 nM
- TGI [45]: 3340 nM
- GI50 [46]: 1370 nM
- TGI [46]: 2680 nM
- GI50 [47]: 2570 nM
- TGI [47]: 5540 nM
- GI50 [48]: 1680 nM
- TGI [48]: 3210 nM
- GI50 [49]: 1700 nM
- TGI [49]: 3450 nM
- GI50 [50]: 1430 nM
- TGI [50]: 2790 nM
- GI50 [51]: 1450 nM
- TGI [51]: 3340 nM
- GI50 [52]: 1630 nM
- TGI [52]: 3910 nM
- GI50 [53]: 1760 nM
- TGI [53]: 3340 nM
- GI50 [54]: 1570 nM
- TGI [54]: 3170 nM
- GI50 [55]: 1720 nM
- TGI [55]: 3450 nM
- GI50 [56]: 1720 nM
- TGI [56]: 3160 nM
- GI50 [57]: 1580 nM
- TGI [57]: 3970 nM
